Source: patent US9745320B2, “Five-and-six-membered heterocyclic compound, and preparation method, pharmaceutical composition and use thereof” (SHANGHAI CHEMEXPLORER CO., LTD., priority 2013, dated 2017)
Read-outs that look alike come from different tables or passages of the source.

Key:
Format in all cases: biochemical
[1] = target: T1, JAK3 (Homo sapiens, UniProt P52333); assay: JAK 3 enzymatic inhibitory activity IC50 assay (Caliper conversion rate)
T1 sequence (P52333 1-1124): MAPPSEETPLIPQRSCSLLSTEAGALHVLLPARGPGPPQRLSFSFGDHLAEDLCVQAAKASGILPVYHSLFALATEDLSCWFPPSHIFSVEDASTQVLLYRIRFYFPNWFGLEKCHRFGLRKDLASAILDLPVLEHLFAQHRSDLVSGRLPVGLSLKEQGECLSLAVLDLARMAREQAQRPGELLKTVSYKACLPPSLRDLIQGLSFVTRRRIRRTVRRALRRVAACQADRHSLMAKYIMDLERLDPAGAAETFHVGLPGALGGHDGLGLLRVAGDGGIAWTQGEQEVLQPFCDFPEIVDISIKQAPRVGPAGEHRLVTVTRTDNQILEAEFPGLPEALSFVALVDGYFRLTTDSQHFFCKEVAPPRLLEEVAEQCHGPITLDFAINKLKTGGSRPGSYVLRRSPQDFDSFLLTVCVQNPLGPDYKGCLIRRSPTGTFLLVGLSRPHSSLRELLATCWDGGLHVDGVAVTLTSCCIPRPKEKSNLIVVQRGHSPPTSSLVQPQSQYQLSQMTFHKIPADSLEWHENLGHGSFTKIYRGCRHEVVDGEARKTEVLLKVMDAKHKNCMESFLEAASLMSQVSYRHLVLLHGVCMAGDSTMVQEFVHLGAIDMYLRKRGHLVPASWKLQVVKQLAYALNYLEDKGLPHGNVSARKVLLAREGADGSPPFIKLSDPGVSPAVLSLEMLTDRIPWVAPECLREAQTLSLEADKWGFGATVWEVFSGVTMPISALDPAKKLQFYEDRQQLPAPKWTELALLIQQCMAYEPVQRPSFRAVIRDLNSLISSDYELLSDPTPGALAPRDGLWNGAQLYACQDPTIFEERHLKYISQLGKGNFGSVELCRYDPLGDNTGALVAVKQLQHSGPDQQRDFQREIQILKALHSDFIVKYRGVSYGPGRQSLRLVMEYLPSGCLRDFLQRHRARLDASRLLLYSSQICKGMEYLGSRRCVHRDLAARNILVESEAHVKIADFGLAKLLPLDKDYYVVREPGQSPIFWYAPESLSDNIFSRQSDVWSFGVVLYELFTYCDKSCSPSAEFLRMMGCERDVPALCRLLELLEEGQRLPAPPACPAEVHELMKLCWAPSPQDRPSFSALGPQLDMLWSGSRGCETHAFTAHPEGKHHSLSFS

[2] = target: JAK1 (Homo sapiens, UniProt P23458); assay: JAK 1 enzymatic inhibitory activity IC50 assay (Caliper conversion rate); details: Km ATP, 28° C., 1 hour
Method in brief: (§1)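 Human JAK1 or JAK2 enzyme was preincubated with graded compound (2% DMSO) in HEPES pH 7.5/Brij-35/DTT buffer (JAK1 also with Triton), then peptide substrate, 10 mM MgCl2 and ATP at Km were added. Reactions ran 1 hour at 28° C; Caliper conversion rate gave inhibition, averaged over two tests, for IC50.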

[3] = target: JAK2 (Homo sapiens, UniProt O60674); assay: JAK 2 enzymatic inhibitory activity IC50 assay (Caliper conversion rate); details: Km ATP, 28° C., 1 hour
Method in brief: as §1

[4] = Km ATP, 28° C., 1 hour, read-out: JAK 3 enzymatic inhibitory activity IC50

Sequence of JAK2 (O60674 whole entry, species assumed): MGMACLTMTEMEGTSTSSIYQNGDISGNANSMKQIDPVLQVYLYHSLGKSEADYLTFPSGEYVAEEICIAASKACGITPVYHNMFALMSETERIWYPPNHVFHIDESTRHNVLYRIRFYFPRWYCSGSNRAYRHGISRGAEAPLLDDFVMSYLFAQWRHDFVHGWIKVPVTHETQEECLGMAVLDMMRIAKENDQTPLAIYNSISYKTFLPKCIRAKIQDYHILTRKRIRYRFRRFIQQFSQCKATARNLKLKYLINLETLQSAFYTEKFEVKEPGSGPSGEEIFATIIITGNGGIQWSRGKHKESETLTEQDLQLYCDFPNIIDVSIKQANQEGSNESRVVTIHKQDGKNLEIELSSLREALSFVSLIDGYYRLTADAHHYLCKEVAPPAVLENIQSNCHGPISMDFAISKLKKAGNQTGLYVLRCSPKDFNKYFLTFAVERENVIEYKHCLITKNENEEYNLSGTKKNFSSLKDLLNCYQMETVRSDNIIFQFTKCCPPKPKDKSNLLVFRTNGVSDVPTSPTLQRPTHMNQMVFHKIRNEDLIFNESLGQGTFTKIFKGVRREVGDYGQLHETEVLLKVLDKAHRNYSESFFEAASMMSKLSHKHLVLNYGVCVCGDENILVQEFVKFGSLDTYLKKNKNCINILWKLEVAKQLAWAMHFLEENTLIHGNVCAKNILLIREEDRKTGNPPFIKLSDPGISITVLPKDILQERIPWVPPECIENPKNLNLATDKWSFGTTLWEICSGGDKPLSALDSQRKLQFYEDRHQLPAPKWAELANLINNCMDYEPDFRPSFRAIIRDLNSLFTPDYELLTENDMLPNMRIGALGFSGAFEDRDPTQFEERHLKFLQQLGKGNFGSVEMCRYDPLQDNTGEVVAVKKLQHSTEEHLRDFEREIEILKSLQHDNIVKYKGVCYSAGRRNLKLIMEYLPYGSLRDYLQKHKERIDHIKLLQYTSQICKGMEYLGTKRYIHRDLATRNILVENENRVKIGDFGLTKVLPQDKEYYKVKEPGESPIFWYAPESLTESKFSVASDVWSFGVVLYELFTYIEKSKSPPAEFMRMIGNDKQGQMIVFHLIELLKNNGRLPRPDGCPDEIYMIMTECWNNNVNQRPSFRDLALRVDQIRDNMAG
Sequence of JAK1 (P23458 whole entry, species assumed): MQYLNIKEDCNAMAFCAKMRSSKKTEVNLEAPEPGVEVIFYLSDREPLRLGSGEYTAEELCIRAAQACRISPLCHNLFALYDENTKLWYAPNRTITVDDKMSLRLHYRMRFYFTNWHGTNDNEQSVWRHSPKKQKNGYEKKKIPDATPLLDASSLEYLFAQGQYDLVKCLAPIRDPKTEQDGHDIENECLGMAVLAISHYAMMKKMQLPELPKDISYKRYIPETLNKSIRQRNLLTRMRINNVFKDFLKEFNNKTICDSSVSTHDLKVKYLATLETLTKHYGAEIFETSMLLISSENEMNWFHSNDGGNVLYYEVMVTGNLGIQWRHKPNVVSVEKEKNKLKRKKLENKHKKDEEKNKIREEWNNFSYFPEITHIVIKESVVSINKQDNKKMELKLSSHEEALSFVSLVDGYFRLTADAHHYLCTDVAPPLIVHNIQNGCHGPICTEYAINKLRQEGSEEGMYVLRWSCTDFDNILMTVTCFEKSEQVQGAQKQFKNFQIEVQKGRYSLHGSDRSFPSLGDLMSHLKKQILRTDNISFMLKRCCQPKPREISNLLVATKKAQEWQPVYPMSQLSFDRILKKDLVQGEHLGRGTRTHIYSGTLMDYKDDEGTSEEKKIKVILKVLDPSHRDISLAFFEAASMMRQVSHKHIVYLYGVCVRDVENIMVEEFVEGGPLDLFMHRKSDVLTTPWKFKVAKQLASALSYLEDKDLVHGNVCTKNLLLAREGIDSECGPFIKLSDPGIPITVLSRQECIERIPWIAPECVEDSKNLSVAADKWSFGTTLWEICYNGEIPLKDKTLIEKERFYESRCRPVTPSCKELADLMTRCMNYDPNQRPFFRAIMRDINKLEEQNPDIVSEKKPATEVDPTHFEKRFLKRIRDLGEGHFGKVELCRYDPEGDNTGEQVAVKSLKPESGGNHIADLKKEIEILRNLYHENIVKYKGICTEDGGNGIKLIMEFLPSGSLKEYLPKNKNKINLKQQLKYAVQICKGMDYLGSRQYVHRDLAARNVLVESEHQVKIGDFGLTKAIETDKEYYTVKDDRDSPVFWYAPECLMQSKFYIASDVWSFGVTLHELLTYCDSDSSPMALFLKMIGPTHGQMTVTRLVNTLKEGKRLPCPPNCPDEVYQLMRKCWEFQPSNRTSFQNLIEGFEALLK

Compound | IC50 [1] [nM] | IC50 [2] [nM] | IC50 [3] [nM] | IC50 [1, 4] [nM]
CCS(=O)(=O)N1CC(CC#N)(n2cc(-c3cc(Nc4ccccc4)nc4ccnn34)cn2)C1 [Compound T-55, 2-(1-(Ethylsulfonyl)-3-(4-(5-(phenylamino)pyrazolo[1,5-a]pyrimidin-7-yl)-1H-pyrazol-1-yl)azetidin-3-yl)acetonitrile] | > 1000 | > 1000 | > 1000 | –
N#Cc1ccc(-c2nc(Nc3ccccc3)nc3ccsc23)cc1F [Compound T-56, 2-Fluoro-4-(2-(phenylamino)thieno[3,2-d]pyrimidin-4-yl)benzonitrile] | – | > 1000 | > 1000 | > 1000
CCS(=O)(=O)N1CC(CC#N)(n2cc(-c3nc(Nc4ccc5[nH]ncc5c4)nc4ccsc34)cn2)C1 [Compound T-57, 2-(3-(4-(2-((1H-Indazol-5-yl)amino)thieno[3,2-d]pyrimidin-4-yl)-1H-pyrazol-1-yl)-1-(ethylsulfonyl)azetidin-3-yl)acetonitrile] | – | 50 to 500 | < 50 | 50 to 500
CCS(=O)(=O)N1CC(CC#N)(n2cc(-c3nc(Nc4ccc5[nH]cnc5c4)nc4ccsc34)cn2)C1 [Compound T-58, 2-(3-(4-(2-((1H-Benzo[d]imidazol-5-yl)amino)thieno[3,2-d]pyrimidin-4-yl)-1H-pyrazol-1-yl)-1-(ethylsulfonyl)azetidin-3-yl)acetonitrile] | – | < 50 | < 50 | 50 to 500
CCS(=O)(=O)N1CC(CC#N)(n2cc(-c3nc(Nc4ccc(-n5cnnn5)cc4)nc4ccsc34)cn2)C1 [Compound T-59, 2-(3-(4-(2-((4-(1H-Tetrazol-1-yl)phenyl)amino)thieno[3,2-d]pyrimidin-4-yl)-1H-pyrazol-1-yl)-1-(ethylsulfonyl)azetidin-3-yl)acetonitrile] | – | < 50 | < 50 | 50 to 500
CCS(=O)(=O)N1CC(CC#N)(n2cc(-c3nc(Nc4cnn(CCCN5CCOCC5)c4)nc4ccsc34)cn2)C1 [Compound T-60, 2-(1-(Ethylsulfonyl)-3-(4-(2-((1-(3-morpholinopropyl)-1H-pyrazol-4-yl)amino)thieno[3,2-d]pyrimidin-4-yl)-1H-pyrazol-1-yl)azetidin-3-yl)acetonitrile] | – | < 50 | < 50 | < 50
CCS(=O)(=O)N1CC(CC#N)(n2cc(-c3nc(Nc4cnn(CCCc5nn[nH]n5)c4)nc4ccsc34)cn2)C1 [Compound T-61, 2-(3-(4-(2-((1-(3-(2H-Tetrazol-5-yl)propyl)-1H-pyrazol-4-yl)amino)thieno[3,2-d]pyrimidin-4-yl)-1H-pyrazol-1-yl)-1-(ethylsulfonyl)azetidin-3-yl)acetonitrile] | – | < 50 | < 50 | < 50
CCS(=O)(=O)N1CC(CC#N)(n2cc(-c3nc(Nc4ccc(N5CCOCC5)nc4)nc4ccsc34)cn2)C1 [Compound T-62, 2-(1-(Ethylsulfonyl)-3-(4-(2-((6-morpholinopyridin-3-yl)amino)thieno[3,2-d]pyrimidin-4-yl)-1H-pyrazol-1-yl)azetidin-3-yl)acetonitrile] | – | 50 to 500 | < 50 | 50 to 500
CCS(=O)(=O)N1CC(CC#N)(n2cc(-c3nc(Nc4cnc(N5CCOCC5)nc4)nc4ccsc34)cn2)C1 [Compound T-63, 2-(1-(Ethylsulfonyl)-3-(4-(2-((2-morpholinopyrimidin-5-yl)amino)thieno[3,2-d]pyrimidin-4-yl)-1H-pyrazol-1-yl)azetidin-3-yl)acetonitrile] | – | 500 to 1000 | < 50 | 500 to 1000
CCS(=O)(=O)N1CC(CC#N)(n2cc(-c3nc(Nc4cnn(C5CCN(C)CC5)c4)nc4ccsc34)cn2)C1 [Compound T-64, 2-(1-(Ethylsulfonyl)-3-(4-(2-((1-(1-methylpiperidin-4-yl)-1H-pyrazol-4-yl)amino)thieno[3,2-d]pyrimidin-4-yl)-1H-pyrazol-1-yl)azetidin-3-yl)acetonitrile] | – | < 50 | < 50 | < 50
CCS(=O)(=O)N1CC(CC#N)(n2cc(-c3nc(Nc4cnn(C5CNC5)c4)nc4ccsc34)cn2)C1 [Compound T-65, 2-(3-(4-(2-((1-(Azetidin-3-yl)-1H-pyrazol-4-yl)amino)thieno[3,2-d]pyrimidin-4-yl)-1H-pyrazol-1-yl)-1-(ethylsulfonyl)azetidin-3-yl)acetonitrile] | – | < 50 | < 50 | 50 to 500
CCS(=O)(=O)N1CC(CC#N)(n2cc(-c3nc(Nc4cnn(C5CN(CC6CC6)C5)c4)nc4ccsc34)cn2)C1 [Compound T-66, 2-(3-(4-(2-((1-(1-(Cyclopropylmethyl)azetidin-3-yl)-1H-pyrazol-4-yl)amino)thieno[3,2-d]pyrimidin-4-yl)-1H-pyrazol-1-yl)-1-(ethylsulfonyl)azetidin-3-yl)acetonitrile] | – | < 50 | < 50 | < 50
CCS(=O)(=O)N1CC(CC#N)(n2cc(-c3nc(Nc4cnn(CCCN5CCN(C)CC5)c4)nc4ccsc34)cn2)C1 [Compound T-67, 2-(1-(Ethylsulfonyl)-3-(4-(2-((1-(3-(4-methylpiperazin-1-yl)propyl)-1H-pyrazol-4-yl)amino)thieno[3,2-d]pyrimidin-4-yl)-1H-pyrazol-1-yl)azetidin-3-yl)acetonitrile] | – | 50 to 500 | < 50 | < 50
CCS(=O)(=O)N1CC(CC#N)(n2cc(-c3nc(Nc4cnn(C)c4)nc4cc(Cl)sc34)cn2)C1 [Compound T-68, 2-(3-(4-(6-Chloro-2-((1-methyl-1H-pyrazol-4-yl)amino)thieno[3,2-d]pyrimidin-4-yl)-1H-pyrazol-1-yl)-1-(ethylsulfonyl)azetidin-3-yl)acetonitrile] | – | > 1000 | 50 to 500 | > 1000
CCS(=O)(=O)N1CC(CC#N)(n2cc(-c3nc(Nc4cnn(CC(F)(F)F)c4)nc4ccsc34)cn2)C1 [Compound T-69, 2-(1-(Ethylsulfonyl)-3-(4-(2-((1-(2,2,2-trifluoroethyl)-1H-pyrazol-4-yl)amino)thieno[3,2-d]pyrimidin-4-yl)-1H-pyrazol-1-yl)azetidin-3-yl)acetonitrile] | – | < 50 | < 50 | 50 to 500
CCS(=O)(=O)N1CC(CC#N)(n2cc(-c3nc(Nc4cnn(CCOC)c4)nc4ccsc34)cn2)C1 [Compound T-70, 2-(1-(Ethylsulfonyl)-3-(4-(2-((1-(2-methoxyethyl)-1H-pyrazol-4-yl)amino)thieno[3,2-d]pyrimidin-4-yl)-1H-pyrazol-1-yl)azetidin-3-yl)acetonitrile] | – | < 50 | < 50 | < 50
CCS(=O)(=O)N1CC(CC#N)(n2cc(-c3nc(Nc4cnn(CCC#N)c4)nc4ccsc34)cn2)C1 [Compound T-71, 3-(4-((4-(1-(3-(Cyanomethyl)-1-(ethylsulfonyl)azetidin-3-yl)-1H-pyrazol-4-yl)thieno[3,2-d]pyrimidin-2-yl)amino)-1H-pyrazol-1-yl)propanenitrile] | – | < 50 | < 50 | < 50
CCS(=O)(=O)N1CC(CC#N)(n2cc(-c3nc(Nc4cc(C)[nH]n4)nc4ccsc34)cn2)C1 [Compound T-72, 2-(1-(Ethylsulfonyl)-3-(4-(2-((5-methyl-1H-pyrazol-3-yl)amino)thieno[3,2-d]pyrimidin-4-yl)-1H-pyrazol-1-yl)azetidin-3-yl)acetonitrile] | – | < 50 | < 50 | < 50
CS(=O)(=O)CCCn1cc(Nc2nc(-c3cnn(C4(CC#N)CCC4)c3)c3sccc3n2)cn1 [Compound T-73, 2-(1-(4-(2-((1-(3-(Methylsulfonyl)propyl)-1H-pyrazol-4-yl)amino)thieno[3,2-d]pyrimidin-4-yl)-1H-pyrazol-1-yl)cyclobutyl)acetonitrile] | – | 50 to 500 | < 50 | 50 to 500
Cn1cc(Nc2nc(-c3cnn(C4(CC#N)CN(S(C)(=O)=O)C4)c3)c3sccc3n2)cn1 [Compound T-74, 2-(3-(4-(2-((1-Methyl-1H-pyrazol-4-yl)amino)thieno[3,2-d]pyrimidin-4-yl)-1H-pyrazol-1-yl)-1-(methylsulfonyl)azetidin-3-yl)acetonitrile] | – | < 50 | < 50 | < 50
